From patent US20160215348A1, “GENE EXPRESSION BIOMARKERS AND THEIR USE FOR DIAGNOSTIC AND PROGNOSTIC APPLICATION IN PATIENTS POTENTIALLY IN NEED OF HDAC INHIBITOR TREATMENT” (4SC AG, priority 2013, published 2016)

Assays:
ZFP64 [1] = assay: ZFP64 gene expression in diverse cancer cell lines (FIG. 4c); format: cell-based; details: 10 μM; 0, 2, 5 and 24 hours
From the text: (§1) To determine RNA expression levels of ZFP64 in different cancer cell lines and PBMC, the cell membranes were chemically disrupted with a buffer containing guanidine isothiocycanate, which lyses the cells and supports the binding of RNA to a silica membrane and RNA was extracted via a filter-based spin column.

[2] = tested on: hepatocellular cancer (HCC); assay: SHELTER clinical trial, overall survival (Kaplan-Meier) by baseline ZFP64 expression; format: in vivo, human
Method: Resminostat was explored as monotherapy and in combination with sorafenib. Patients with advanced HCC (BCLC staging B/C) were included in a multi-center, two-arm trial. […] A dose escalation of resminostat (range 200 to 600 mg) combined with Sorafenib (400 or 800 mg) was performed. Arm A investigated the drug combination (resminostat+sorafenib), Arm B the monotherapy of resminostat (600 mg). Primary objective was the progression-free survival rate (PFSR) after 12 weeks (w). Secondary objectives included safety, tolerability, tumor response, PFS, TTP, OS and the analyses of PK and biomarkers (BM), incl. HDAC enzyme inhibition, histone acetylation and gene expressions in peripheral blood. Based on the results and indications seen in the analysis in example 3a, the dCt values of ZFP64 at baseline were treated with the method described here for determining the split between gene expression groups. Data was processed as follows: Gene expression data of the genes of interest was gathered as real time PCR dCt values relative to the expression of housekeeping genes for a specific time point, e.g. at baseline prior to treatment start. […] Said two groups were then compared in Kaplan-Meier analyses for OS, PFS in order to identify a statistically significant difference that separates the patients' probability for OS, PFS.

18S [3] = assay: Gene expression in HT29 cancer cells (in vitro); format: cell-based, human; details: standardized to 0 h
Method: (§2) Hatched columns relate to blood, black columns relate to HepG2 cells, white boxes relate to HT 29 cells. Values are standardized to the value at 0 h.
(§3) Samples were obtained and gene expressions were determined with the methods as described herein below. The results are shown in below table 3 and FIGS. 2 and 3
(§4) The above values represent a mean value which was determined on the basis of 2 biological replicates, for each of which 3 technical replicates were prepared. […] The level of gene expression determined in peripheral blood samples can be correlated with a certain level of activity of HDAC in the diseased cells, e.g. by applying an appropriate conversion factor or conversion table, which may be determined for each specific disease, and/or patient group.
as §1
(§5) The High-Capacity cDNA Reverse Transcription Kit (Applied Biosystems) was used for reverse transcription of total RNA into single stranded cDNA with the aid of random hexamer primers according to the manufacturer's instructions. Briefly, for the reaction mix total RNA was mixed with random primers in excess, 4 mM dNTP Mix, 2.5 U/reaction, reverse transcriptase and nuclease free water. The reverse transcription took place in a thermal cycler under the following conditions: 25° C. for 10 min, 37° C. for 120 min, 85° C. for 5 min, followed by 4° C. for cooling down the reaction. The reverse transcription can be done in principle as well with other reverse transcriptases, primers and temperature protocols. Whenever possible, 250 ng total RNA were reverse transcribed if not available, lower amounts were used.
(§6) Custom TaqMan® Arrays (Applied Biosystems) in Format 16 were designed for the gene expression analysis of biomarkers of the present invention and housekeeping genes as outlined in table 4. These arrays allow for qPCR analysis of 8 samples per card. Of course, all reactions can be done as well by conventional qPCR analysis with specific primers.

MICALL1 [4] = assay: Gene expression in HT29 cancer cells (in vitro); format: cell-based, human; details: standardized to 0 h
Method: as §2, §3, §4, §1, §5, §6

ZFP64 [5] = assay: Gene expression in HT29 cancer cells (in vitro); format: cell-based, human; details: standardized to 0 h
Method: as §2, §3, §4, §1, §5, §6

KDELC2 = assay: Gene expression in HepG2 cancer cells (in vitro); format: cell-based, human; details: standardized to 0 h
Method: as §2, §3, §4, §1, §5, §6

DPP3 = assay: Gene expression in HepG2 cancer cells (in vitro); format: cell-based, human; details: standardized to 0 h
Method: as §2, §3, §4, §1, §5, §6

18S [6] = assay: Gene expression in HepG2 cancer cells (in vitro); format: cell-based, human; details: standardized to 0 h
Method: as §2, §3, §4, §1, §5, §6

MICALL1 [7] = assay: Gene expression in HepG2 cancer cells (in vitro); format: cell-based, human; details: standardized to 0 h
Method: as §2, §3, §4, §1, §5, §6

ZFP64 [8] = assay: Gene expression in HepG2 cancer cells (in vitro); format: cell-based, human; details: standardized to 0 h
Method: as §2, §3, §4, §1, §5, §6

GAPDH = assay: Gene expression in HepG2 cancer cells (in vitro); format: cell-based, human; details: standardized to 0 h
Method: as §2, §3, §4, §1, §5, §6

CCDC43 = assay: Gene expression in HepG2 cancer cells (in vitro); format: cell-based, human; details: standardized to 0 h
Method: as §2, §3, §4, §1, §5, §6

HIST2H4A/B = assay: Gene expression in HepG2 cancer cells (in vitro); format: cell-based, human; details: standardized to 0 h
Method: as §2, §3, §4, §1, §5, §6

TBP = assay: Gene expression in HepG2 cancer cells (in vitro); format: cell-based, human; details: standardized to 0 h
Method: as §2, §3, §4, §1, §5, §6

[9] = SHELTER patients on resminostat 600 mg or resminostat 600 mg + sorafenib 400 mg, pooled, split at 75th percentile
[10] = SHELTER, single arm, resminostat 600 mg (combination: + sorafenib 400 mg), split at 75th percentile
[11] = all available SHELTER patients (monotherapy and sorafenib combination arms pooled), split 60% high/40% low

- Expression level, MICALL1 (MICALL1 [4]; 2 h): 0.81
- Expression level, MICALL1 (MICALL1 [4]; 5 h): 0.42
- Expression level, MICALL1 (MICALL1 [7]; 2 h): 0.85
- Expression level, MICALL1 (MICALL1 [7]; 5 h): 0.50
Structure (SMILES): CN(C)Cc1ccc(S(=O)(=O)n2ccc(/C=C/C(=O)NO)c2)cc1 [resminostat, (E)-3-(1-(4-((dimethylamino)methyl)phenylsulfonyl)-1H-pyrrol-3-yl)-N-hydroxyacrylamide]
- ZFP64 expression in several cancer cell lines (FIG. 4c) (ZFP64 [1]): down-regulating effect
- median OS (high ZFP64 expression) [2, 9]: 9.4 months
- median OS (low ZFP64 expression) [2, 9]: 5.1 months
- overall median OS for the two groups ([2]; SHELTER, single arm, resminostat 600 mg (combination: + sorafenib 400 mg)): 3.7 months
- median OS for high ZFP64 expression [2, 10]: 7.0 months
- median OS for low ZFP64 expression [2, 10]: 0.9 months
- median OS (high ZFP64 expression) [2, 11]: 8 months
- median OS (low ZFP64 expression) [2, 11]: 3.9 months
- Expression level, 18s (housekeeping gene) (18S [3]; 2 h): 0.94
- Expression level, 18s (housekeeping gene) (18S [3]; 5 h): 0.91
- Expression level, ZFP64 (ZFP64 [5]; 2 h): 0.58
- Expression level, ZFP64 (ZFP64 [5]; 5 h): 0.25
- Expression level, KDELC2 (KDELC2; 2 h): 0.84
- Expression level, KDELC2 (KDELC2; 5 h): 0.54
- Expression level, DPP3 (DPP3; 2 h): 0.86
- Expression level, DPP3 (DPP3; 5 h): 0.72
- Expression level, 18s (housekeeping gene) (18S [6]; 2 h): 0.91
- Expression level, 18s (housekeeping gene) (18S [6]; 5 h): 0.87
- Expression level, ZFP64 (ZFP64 [8]; 2 h): 0.46
- Expression level, ZFP64 (ZFP64 [8]; 5 h): 0.19
- Expression level, GAPDH (housekeeping gene) (GAPDH; 2 h): 0.96
- Expression level, GAPDH (housekeeping gene) (GAPDH; 5 h): 1.03
- Expression level, CCDC43 (CCDC43; 2 h): 0.70
- Expression level, CCDC43 (CCDC43; 5 h): 0.46
- Expression level, HIST2H4A/B (HIST2H4A/B; 2 h): 0.88
- Expression level, HIST2H4A/B (HIST2H4A/B; 5 h): 1.17
- Expression level, TBP (housekeeping gene) (TBP; 2 h): 1.15
- Expression level, TBP (housekeeping gene) (TBP; 5 h): 1.12
